Source: patent US20130012432A1, “Peptides for Treatment of Obesity” (Novo Nordisk A/S, priority 2010, published 2013)
Values after ≈ are worked out from the molar mass of the structure shown. Positions of bridges follow the written chain, without caps; N, C: chain ends. Non-standard residues stand in square brackets, D forms with d. Residues, ends and D or L forms follow the SMILES beside them. Groups on a side chain read outwards from the residue. *: point of attachment. Palmitoyl(16-(5-tetrazolyl)) = O=C(CCCCCCCCCCCCCCCc1nnn[nH]1)*; Lys(CH2CO2H)2 = N[C@@H](CCCCN(CC(=O)O)CC(=O)O)C(=O)O; X1 = O=C(O)CCCCCCCCCCCCCCCCC(=O)NCCOCCOCCN*; C17 diacid = O=C(O)CCCCCCCCCCCCCCCC(=O)*; Hyp = O=C(O)[C@@H]1C[C@@H](O)CN1; AEEA = NCCOCCOCC(=O)O

Tests used:
[1] = physchem
Description: From a stock solution in vehicle, either H2O or 10 mM phosphate, containing 1 mg (as weighed) compound per ml, 8-11 aliquots are withdrawn and pH-adjusted individually with HCl/NaOH, to cover the whole pH range.

[2] = target: MC1 receptor (Homo sapiens, UniProt Q01726); assay: biochemical
In short: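 Radioligand competition on membranes (25 μg/ml) of BHK cells stably expressing MC1, with 22 pM final 125I-NDP-α-MSH in 25 mM HEPES pH 7.4, Ca/Mg, EDTA, 0.1% HSA (or ovalbumin), 0.005% Tween 20. Incubated 90 min at 30 °C, filtered over PEI-treated GF/B; curves fitted by non-linear regression.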

Chain of MC1 receptor (Q01726 whole entry): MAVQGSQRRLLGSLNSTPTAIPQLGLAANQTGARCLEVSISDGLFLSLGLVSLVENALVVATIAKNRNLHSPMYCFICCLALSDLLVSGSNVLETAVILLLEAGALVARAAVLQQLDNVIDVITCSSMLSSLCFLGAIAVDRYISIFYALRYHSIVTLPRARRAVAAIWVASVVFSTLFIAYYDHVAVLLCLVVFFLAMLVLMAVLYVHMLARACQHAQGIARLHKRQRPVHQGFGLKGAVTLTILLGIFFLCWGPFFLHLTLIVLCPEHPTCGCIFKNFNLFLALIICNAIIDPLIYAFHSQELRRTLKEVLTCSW

| SMILES | solubility ([1]; pH 6.7, Solubility Conc.) | solubility ([1]; pH 7, Solubility Conc.) | solubility ([1]; pH 7.3, Solubility Conc.) | solubility ([1]; pH 7.5, Solubility Conc.) | solubility ([1]; pH 7.6, Solubility Conc.) | solubility ([1]; pH 8, Solubility Conc.) | solubility ([1]; pH 8.3, Solubility Conc.) | Ki [2] | other results |
| --- | --- | --- | --- | --- | --- | --- | --- | --- | --- |
| CC(=O)N[C@H]1CCC(=O)NCCCC[C@@H](C(=O)N2C[C@H](O)C[C@H]2C(=O)N2C[C@H](O)C[C@H]2C(=O)N[C@@H](CCCNC(=N)N)C(=O)N[C@@H](CC(=O)O)C(=O)N[C@@H](CCCCN(CC(=O)O)CC(=O)O)C(=O)N[C@@H](CCCCNC(=O)COCCOCCNC(=O)CCCCCCCCCCCCCCCc2nnn[nH]2)C(N)=O)NC(=O)[C@H](Cc2c[nH]c3ccccc23)NC(=O)[C@H](CCCNC(=N)N)NC(=O)[C@@H](Cc2ccccc2)NC(=O)[C@H](Cc2c[nH]cn2)NC1=O [Example 48, Ac-c[Glu-His-D-Phe-Arg-Trp-Lys]-Hyp-Hyp-Arg-Asp-Lys(biscarboxymethyl)-Lys[(2-{2-[16-(tetrazol-5-yl)hexadecanoylamino]ethoxy}ethoxy)acetyl]-NH2] (Ac-EH[dF]RWK[Hyp][Hyp]RD[Lys(CH2CO2H)2]K([AEEA-Palmitoyl(16-(5-tetrazolyl))])-NH2; lactam 1-6) | 54 µM (≈ 121 µg/mL) | 107 µM (≈ 240 µg/mL) | 218 µM (≈ 490 µg/mL) | 368 µM (≈ 827 µg/mL) | 416 µM (≈ 935 µg/mL) | 420 µM (≈ 944 µg/mL) | 412 µM (≈ 926 µg/mL) | > 10 µM | solubility ([1]; pH 7.4, Solubility Conc.): 309 µM (≈ 694 µg/mL); solubility ([1]; pH 7.8, Solubility Conc.): 430 µM (≈ 966 µg/mL); solubility ([1]; pH 8.1, Solubility Conc.): 418 µM (≈ 939 µg/mL) |
| CC(=O)N[C@H]1CCCCNC(=O)C[C@@H](C(=O)N2CCC[C@H]2C(=O)N2CCC[C@H]2C(=O)N[C@@H](Cc2c[nH]cn2)C(=O)N[C@@H](CCC(=O)O)C(=O)N[C@@H](CCC(=O)O)C(=O)N[C@@H](CO)C(=O)N[C@@H](CO)C(=O)N[C@@H](CCC(=O)O)C(=O)N[C@@H](CCCCNC(=O)COCCOCCNC(=O)CCCCCCCCCCCCCCCC(=O)O)C(N)=O)NC(=O)[C@H](Cc2c[nH]c3ccccc23)NC(=O)[C@H](CCCNC(=N)N)NC(=O)[C@@H](Cc2ccccc2)NC(=O)[C@H](Cc2c[nH]cn2)NC1=O [Example 52] (Ac-KH[dF]RWDPPHEESSEK([AEEA-C17 diacid])-NH2; lactam 1-6) | 376 µM (≈ 887 µg/mL) | 372 µM (≈ 878 µg/mL) | 378 µM (≈ 892 µg/mL) | 382 µM (≈ 901 µg/mL) | 381 µM (≈ 899 µg/mL) | 391 µM (≈ 923 µg/mL) | 390 µM (≈ 920 µg/mL) | > 10 µM | solubility ([1]; pH 6.1, Solubility Conc.): 169 µM (≈ 399 µg/mL); solubility ([1]; pH 6.3, Solubility Conc.): 339 µM (≈ 800 µg/mL) |
| CC(=O)N[C@H]1CCCCNC(=O)C[C@@H](C(=O)N2CCC[C@H]2C(=O)N[C@@H](CO)C(=O)N[C@@H](CO)C(=O)N[C@@H](CO)C(=O)N[C@@H](CCCCN(CC(=O)O)CC(=O)O)C(=O)N[C@@H](CO)C(=O)N[C@@H](CO)C(=O)NCCOCCOCCNC(=O)CCCCCCCCCCCCCCCCC(=O)O)NC(=O)[C@H](Cc2c[nH]c3ccccc23)NC(=O)[C@H](CCCNC(=N)N)NC(=O)[C@@H](Cc2ccccc2)NC(=O)[C@H](Cc2c[nH]cn2)NC1=O [Example 53, Ac-c[Lys-His-D-Phe-Arg-Trp-Asp]-Pro-Ser-Ser-Ser-Lys(biscarboxymethyl)-Ser-Ser-NH(2-{2-[2-(17-carboxyheptadecanoylamino)ethoxy]ethoxy}ethyl)] (Ac-KH[dF]RWDPSSS[Lys(CH2CO2H)2]SS-X1; lactam 1-6) | – | – | – | – | – | – | – | > 10 µM | solubility ([1]; pH 6.6, Solubility Conc., pH 6.6, vehicle 10 mM phosphate): 82 µM (≈ 173 µg/mL); solubility ([1]; pH 6.9, Solubility Conc., pH 6.9, vehicle 10 mM phosphate): 159 µM (≈ 336 µg/mL); solubility ([1]; pH 7.2, Solubility Conc., pH 7.2, vehicle 10 mM phosphate): 337 µM (≈ 713 µg/mL); solubility ([1]; pH 7.3, Solubility Conc., pH 7.3, vehicle 10 mM phosphate): 396 µM (≈ 838 µg/mL); solubility ([1]; pH 7.4, Solubility Conc., pH 7.4, vehicle 10 mM phosphate): 410 µM (≈ 867 µg/mL); solubility ([1]; pH 7.5, Solubility Conc., pH 7.5, vehicle 10 mM phosphate): 385 µM (≈ 814 µg/mL); solubility ([1]; pH 7.7, Solubility Conc., pH 7.7, vehicle 10 mM phosphate): 393 µM (≈ 831 µg/mL); solubility ([1]; pH 7.9, Solubility Conc., pH 7.9, vehicle 10 mM phosphate): 425 µM (≈ 899 µg/mL); solubility ([1]; pH 8.2, Solubility Conc., pH 8.2, vehicle 10 mM phosphate): 403 µM (≈ 853 µg/mL) |
